How the values were obtained:
Format in all cases: functional
[1] = test system: SF-539; test: Growth inhibition of human SF539 cells incubated for 48 hrs by sulforhodamine B assay; conditions: SF-539, 48 h
[2] = test system: HCT-15; test: Growth inhibition of human HCT15 cells incubated for 48 hrs by sulforhodamine B assay; conditions: HCT-15, 48 h
[3] = test system: OVCAR-4; test: Growth inhibition of human OVCAR4 cells incubated for 48 hrs by sulforhodamine B assay; conditions: OVCAR-4, 48 h
[4] = test system: SK-MEL-2; test: Growth inhibition of human SK-MEL-2 cells incubated for 48 hrs by sulforhodamine B assay; conditions: SK-MEL-2, 48 h
[5] = test system: A498; test: Growth inhibition of human A498 cells incubated for 48 hrs by sulforhodamine B assay; conditions: A498, 48 h
[6] = test system: SNB-19; test: Growth inhibition of human SNB19 cells incubated for 48 hrs by sulforhodamine B assay; conditions: SNB-19, 48 h
[7] = test system: CAKI-1; test: Growth inhibition of human Caki1 cells incubated for 48 hrs by sulforhodamine B assay; conditions: CAKI-1, 48 h
[8] = test system: 786-0; test: Growth inhibition of human 786-0 cells incubated for 48 hrs by sulforhodamine B assay; conditions: 786-0, 48 h
[9] = test system: SK-MEL-28; test: Growth inhibition of human SK-MEL-28 cells incubated for 48 hrs by sulforhodamine B assay; conditions: SK-MEL-28, 48 h
[10] = test system: SN12C; test: Growth inhibition of human SN12C cells incubated for 48 hrs by sulforhodamine B assay
[11] = test system: Malme-3M; test: Growth inhibition of human MALME-3M cells incubated for 48 hrs by sulforhodamine B assay
[12] = test system: T47D; test: Growth inhibition of human T47D cells incubated for 48 hrs by sulforhodamine B assay
[13] = test system: MDA-MB-435; test: Growth inhibition of human MDA-MB-435 cells incubated for 48 hrs by sulforhodamine B assay; conditions: MDA-MB-435, 48 h
[14] = test system: OVCAR-8; test: Growth inhibition of human OVCAR8 cells incubated for 48 hrs by sulforhodamine B assay; conditions: OVCAR-8, 48 h
[15] = test system: NCI-H23; test: Growth inhibition of human NCI-H23 cells incubated for 48 hrs by sulforhodamine B assay; conditions: NCI-H23, 48 h
[16] = test system: K562; test: Growth inhibition of human K562 cells incubated for 48 hrs by sulforhodamine B assay; conditions: K562, 48 h
[17] = test system: OVCAR-3; test: Growth inhibition of human OVCAR3 cells incubated for 48 hrs by sulforhodamine B assay; conditions: OVCAR-3, 48 h
[18] = test system: MDA-MB-231; test: Growth inhibition of human MDA-MB-231 cells incubated for 48 hrs by sulforhodamine B assay; conditions: MDA-MB-231, 48 h
[19] = test system: DU-145; test: Growth inhibition of human DU145 cells incubated for 48 hrs by sulforhodamine B assay; conditions: DU-145, 48 h
[20] = test system: SK-MEL-5; test: Growth inhibition of human SK-MEL-5 cells incubated for 48 hrs by sulforhodamine B assay; conditions: SK-MEL-5, 48 h
[21] = test system: UO-31; test: Growth inhibition of human UO31 cells incubated for 48 hrs by sulforhodamine B assay; conditions: UO-31, 48 h
[22] = test system: HOP-62; test: Growth inhibition of human HOP62 cells incubated for 48 hrs by sulforhodamine B assay; conditions: HOP-62, 48 h
[23] = test system: SF-295; test: Growth inhibition of human SF295 cells incubated for 48 hrs by sulforhodamine B assay; conditions: SF-295, 48 h
[24] = test system: BT-549; test: Growth inhibition of human BT549 cells incubated for 48 hrs by sulforhodamine B assay; conditions: BT-549, 48 h
[25] = test system: UACC-257; test: Growth inhibition of human UACC257 cells incubated for 48 hrs by sulforhodamine B assay; conditions: UACC-257, 48 h
[26] = test system: NCI/ADR-RES; test: Growth inhibition of human NCI/ADR-RES cells incubated for 48 hrs by sulforhodamine B assay
[27] = test system: PC-3; test: Growth inhibition of human PC3 cells incubated for 48 hrs by sulforhodamine B assay; conditions: PC-3, 48 h
[28] = test system: A549; test: Growth inhibition of human A549/ATCC cells incubated for 48 hrs by sulforhodamine B assay; conditions: A549, 48 h
[29] = test system: IGROV-1; test: Growth inhibition of human IGROV1 cells incubated for 48 hrs by sulforhodamine B assay; conditions: IGROV-1, 48 h
[30] = test system: SNB-75; test: Growth inhibition of human SNB75 cells incubated for 48 hrs by sulforhodamine B assay; conditions: SNB-75, 48 h
[31] = test system: ACHN; test: Growth inhibition of human ACHN cells incubated for 48 hrs by sulforhodamine B assay
[32] = read-out: LC50 (the source's name)

SMILES: Cc1nc2cc(O)c(O)cc2cc1Oc1ccc(NC(=O)Nc2ccc(Cl)c(Cl)c2)cc1
- GI50 [1]: 8.86 µM
- TGI [1]: 22.7 µM
- CC50 [1, 32]: > 32.5 µM
- GI50 [2]: 5.47 µM
- LC50 (lethal concentration, 50% net cell kill) [2]: > 32.5 µM
- TGI [2]: > 32.5 µM
- GI50 [3]: 9.73 µM
- TGI [3]: > 32.5 µM
- CC50 [3, 32]: > 32.5 µM
- GI50 [4]: 8.83 µM
- TGI [4]: 21.1 µM
- CC50 [4, 32]: > 32.5 µM
- GI50 [5]: > 32.5 µM
- TGI [5]: > 32.5 µM
- CC50 [5, 32]: > 32.5 µM
- GI50 [6]: 10.1 µM
- TGI [6]: > 32.5 µM
- CC50 [6, 32]: > 32.5 µM
- GI50 [7]: 4.96 µM
- TGI [7]: 30 µM
- CC50 [7, 32]: > 32.5 µM
- GI50 [8]: 7.67 µM
- TGI [8]: 18.6 µM
- CC50 [8, 32]: > 32.5 µM
- GI50 [9]: 9 µM
- TGI [9]: 30.1 µM
- CC50 [9, 32]: > 32.5 µM
- GI50 [10]: 8.97 µM
- TGI [10]: 30.3 µM
- CC50 [10, 32]: > 32.5 µM
- GI50 [11]: 8.6 µM
- TGI [11]: 26 µM
- CC50 [11, 32]: > 32.5 µM
- GI50 [12]: 11.6 µM
- TGI [12]: > 32.5 µM
- CC50 [12, 32]: > 32.5 µM
- GI50 [13]: 6.99 µM
- TGI [13]: > 32.5 µM
- CC50 [13, 32]: > 32.5 µM
- GI50 [14]: 5.77 µM
- TGI [14]: > 32.5 µM
- CC50 [14, 32]: > 32.5 µM
- GI50 [15]: 6.97 µM
- TGI [15]: 19.6 µM
- CC50 [15, 32]: > 32.5 µM
- GI50 [16]: 6.93 µM
- LC50 (concentration killing 50% of cells) [16]: > 32.5 µM
- TGI [16]: 29.6 µM
- GI50 [17]: 8.52 µM
- TGI [17]: 19.9 µM
- CC50 [17, 32]: > 32.5 µM
- GI50 [18]: 2.49 µM
- TGI [18]: > 32.5 µM
- CC50 [18, 32]: > 32.5 µM
- GI50 [19]: 7.26 µM
- TGI [19]: 25.2 µM
- CC50 [19, 32]: > 32.5 µM
- GI50 [20]: 5.94 µM
- TGI [20]: 14.2 µM
- CC50 [20, 32]: > 32.5 µM
- GI50 [21]: 6.97 µM
- TGI [21]: 14.9 µM
- CC50 [21, 32]: 31.9 µM
- GI50 [22]: 8.62 µM
- TGI [22]: > 32.5 µM
- CC50 [22, 32]: > 32.5 µM
- GI50 [23]: 11.4 µM
- TGI [23]: > 32.5 µM
- CC50 [23, 32]: > 32.5 µM
- GI50 [24]: 7.5 µM
- TGI [24]: > 32.5 µM
- CC50 [24, 32]: > 32.5 µM
- GI50 [25]: 7.27 µM
- TGI [25]: 21.3 µM
- CC50 [25, 32]: > 32.5 µM
- GI50 [26]: 8.74 µM
- TGI [26]: > 32.5 µM
- CC50 [26, 32]: > 32.5 µM
- GI50 [27]: 4.36 µM
- TGI [27]: > 32.5 µM
- CC50 [27, 32]: > 32.5 µM
- GI50 [28]: 8.99 µM
- TGI [28]: 26.2 µM
- CC50 [28, 32]: > 32.5 µM
- GI50 [29]: 12.3 µM
- TGI [29]: > 32.5 µM
- CC50 [29, 32]: > 32.5 µM
- GI50 [30]: 7.73 µM
- TGI [30]: 28.9 µM
- CC50 [30, 32]: > 32.5 µM
- GI50 [31]: 3.37 µM
- TGI [31]: 17.9 µM
- CC50 [31, 32]: > 32.5 µM
